Results published in ChEMBL document CHEMBL1143917, “Improved synthesis of histone deacetylase inhibitors (HDIs) (MS-275 and CI-994) and inhibitory effects of HDIs alone or in combination with RAMBAs or retinoids on growth of human LNCaP prostate cancer cells and tumor xenografts” (Bioorg Med Chem, 2008).
Each block holds one compound with its values, some of them ahead of it.

Key:
[1] = system: LNCaP; test: Cell cycle arrest in human LNCap cells assessed as accumulation at G1 phase relative to control at 5 uM; assay type: functional
[2] = system: LNCaP; test: Cell cycle arrest in human LNCap cells assessed as accumulation at S phase relative to control at 5 uM; assay type: functional
[3] = system: LNCaP; test: Cell cycle arrest in human LNCap cells assessed as accumulation at G2/M phase relative to control at 5 uM; assay type: functional
[4] = system: LNCaP; test: Antitumor activity against human LNCap cells xenografted SCID mouse model at 10 to 20 mg/kg/day, sc relative to control; assay type: functional; conditions: route subcutaneous
[5] = system: LNCaP; test: Antiproliferative activity against human LNCap by MTT assay; assay type: functional, cell-based
[6] = system: LNCaP; test: Cell cycle arrest in human LNCap cells assessed as accumulation at G1 phase relative to control at 1 uM; assay type: functional
[7] = system: LNCaP; test: Cell cycle arrest in human LNCap cells assessed as accumulation at S phase relative to control at 1 uM; assay type: functional
[8] = system: LNCaP; test: Cell cycle arrest in human LNCap cells assessed as accumulation at G2/M phase relative to control at 1 uM; assay type: functional
[9] = system: LNCaP; test: Antitumor activity against human LNCap cells xenografted SCID mouse model at 20 to 10 mg/kg/day, sc relative to control; assay type: functional; conditions: route subcutaneous

SMILES: CC1=C(/C=C/C(C)=C/C=C/C(C)=C/C(=O)Nc2ccc(O)cc2)C(C)(C)CCC1n1ccnc1 (stereo not given)
Activity [1]: 89.14%
Activity [2]: 10.86%
Activity [3]: 0%
Activity [4]: 81.6%

IC50 [5]: 0.36 µM
SMILES: Nc1ccccc1NC(=O)c1ccc(CNC(=O)OCc2cccnc2)cc1 [ENTINOSTAT]

IC50 [5]: 7.4 µM
SMILES: CC(=O)Nc1ccc(C(=O)Nc2ccccc2N)cc1 [TACEDINALINE]

SMILES: O=C(CCCCCCC(=O)Nc1ccccc1)NO [VORINOSTAT]
Activity [6]: 81.9%
Activity [7]: 18.1%
Activity [8]: 0%
Activity [9]: 97.1%
